# What was measured:
# [1] = test system: Shigella flexneri 2a (backbone plasmid pBBR1MCS5); experiment: Control fermentations inactivated with BPL, CFU; format: cell-based; conditions: 0.05% BPL, 30 min, two control fermentations
# From the text: (§1) During the production process samples of the culture broth are taken at fixed timepoints (labeled A-M in FIG. 3) to determine optical density, colony forming units (CFU), BG appearance by microscopy as well as for real time PCR analysis of DNA contents. Fermentation parameters like pH, air flow, pO2, stirring and temperature are automatically documented by the fermentation program. Throughout the consistency study all parameters were kept in a narrow window.
# To determine the inactivation effect of BPL to Shigella flexneri 2a bacteria under the same fermentation conditions as for production of BG two control fermentations using Shigella flexneri 2a transformed with the backbone plasmid pBBR1MCS5 (no lysis, no nuclease) were performed. BPL killing rates as well as DNA concentration of bacterial samples was measured at time points and under fermentation conditions described for BG production (Example 1, FIG. 3).
# [2] = cited from earlier work
# [3] = test system: E. coli NM522 (backbone plasmid pBBR1MCS5); experiment: BPL treatment in 20 l fermenter, control without lysis, CFU; format: cell-based; conditions: 0.05% BPL, 42° C., 30 min
# From the text: as §1
# (§2) BPL killing rates as well as DNA concentration of bacterial samples were measured at time points and under fermentation conditions as described for BG production (Example 1, FIG. 3).
# [4] = test system: E. coli NM522 (pGlysivb, pSNUCIQ3); experiment: BPL inactivation of E-SNUC BG in 20 l fermenter; format: cell-based; conditions: 42° C., 30 min
# Description: (§3) Gram negative bacteria (e.g E. coli or Shigella flexneri 2a in this study) are transformed with plasmid pGlysivb (encoding lysis gene E, construction as described in FIG. 2) or pGLNIc (encoding both the lysis gene E and the Staphylococcus aureus nuclease gene SNUC; WO 03/006630). Plasmids, pGlysivb and pGLNIc tightly regulate expression of lysis gene E by a temperature upshift from 35° C. to 42-44° C. under the mutated thermosensitive Lambda-promotor (λPRmut) and the expression of SNUC depends on induction from an upstream lac-promotor by addition of IPTG. As a consequence of protein E expression an E-specific tunnel structure between the inner and outer membrane of the bacteria is formed resulting in the expulsion of the cytoplasmic contents, including chromosomal and plasmid DNA, into the culture media under conditions described, at least 99.9% of all bacteria are converted into BG during the E-lysis process. To guarantee nucleic acid free BG a second system is activated in case of pGLNIc making use of the DNA and RNA degrading capabilities of SNUC. The nuclease is expressed −30 min before induction of gene E expression during the exponential growth phase of the bacteria and is activated after completion of E-lysis by addition of magnesiumchloride and calciumchloride. […]
# [5] = test system: E. coli NM522 BG (pGlysivb); experiment: BPL treatment in 20 l fermenter, E-lysed BG, CFU; format: cell-based; conditions: 0.05% BPL, 42° C., 30 min
# Description: as §3, with “SNUC.” for “SNUC. The nuclease is expressed −30 min before induction of gene E expression during the exponential growth phase of the bacteria and is activated after completion of E-lysis by addition of magnesiumchloride and calciumchloride.”
# as §2
# [6] = test system: E. coli NM522 (pBBR1MCS5); experiment: BPL treatment of E. coli NM522 (pBBR1MCS5, no E-lysis), small scale, CFU; format: cell-based; conditions: 0.05% BPL, 42° C., 30 min
# Description: (§4) 2. Comparison of E. coli NM522 (pBBR1MCS5, no E-lysis) and E. coli BG NM522 (pGlysivb, E-lysis Plasmid) Treated vs. Nontreated with BPL at a Final Concentration of 0.05% BPL at 42° C.
# (§5) Data from E. coli NM522 (pBBR1MCS5) that have been treated with 0.05% BPL at 42° C. (FIG. 4A) are showing that a reduction in viability of ˜5 log is obtained in small scale experiments whereas E. coli BG NM522 (pGlysivb) treated with 0.05% BPL at 42° C. […] Using a concentration of 0.05% BPL under a temperature of 42° C. and 30 min for the reaction is sufficient for E-lysed bacteria to be safely inactivated; no living cell counts are detected.
# [7] = test system: E. coli BG NM522 (pGlysivb); experiment: BPL treatment of E. coli BG NM522 (pGlysivb, E-lysis plasmid), small scale, CFU; format: cell-based; conditions: 0.05% BPL, 42° C., 30 min
# Description: as §4, §5
# E. coli NM522 pGlysivb = experiment: Temperature study of BPL inactivation rates; format: cell-based; conditions: 0.05% BPL; for reduction of CFU: within 30 min; for time to BPL inactivation: starting CFU approximately 110^3/ml
# From the text: The sterilizing activity of BPL and its self destruction in water is temperature dependant.
smiles,measurement,setting,value
"O=C1CCO1 [BPL, betapropiolactone]",drop in living cell counts (CFU),[1],4 log
same,solubility in water,[2],highly soluble in water
same,reduction in viability,[3],~3 log
same,concentration used for total inactivation by BPL,[4],less than 0.025%
same,"inactivation, live CFU at end of BG production process",[5],total inactivation
same,reduction in viability,[6],~5 log
same,surviving bacteria after BPL treatment,[7],no surviving bacteria
same,reduction of CFU,E. coli NM522 pGlysivb; 16° C.,less than 0.5 log
same,reduction of CFU,E. coli NM522 pGlysivb; 28° C.,approximately 1.5 log
same,time to BPL inactivation,E. coli NM522 pGlysivb; 36° C.,30 min
same,time to BPL inactivation,E. coli NM522 pGlysivb; 42° C.,15 min

# Reference: patent US7968323B2, “Bacterial ghost (BG) production process using betapropiolactone (BPL) for final inactivation” (priority 2008, dated 2011)
